From BindingDB's records for doi:10.1021/jm980439q (State University of New York, 1999)

Biological target: Voltage-dependent L-type calcium channel subunit alpha-1C (Cavia porcellus)
Test: Displacement of [3H](+)-PN200-110 binding to calcium channels in guinea pig cardiac membranes.

Ki	SMILES
4.1 nM	CCOC(=O)C1=C(C)N=C(C)C(C(=O)OCC)C1c1c(C)noc1CCc1cccc2ccccc12 (stereo not drawn) [2,6-Dimethyl-4-[3-methyl-5-(2-naphthalen-1-yl-ethyl)-isoxazol-4-yl]-1,4-dihydro-pyridine-3,5-dicarboxylic acid diethyl ester]
20 nM	CCOC(=O)C1=C(C)N=C(C)C(C(=O)OCC)C1c1c(C)noc1CCc1ccc2ccccc2c1 (stereo not drawn) [2,6-Dimethyl-4-[3-methyl-5-(2-naphthalen-2-yl-ethyl)-isoxazol-4-yl]-1,4-dihydro-pyridine-3,5-dicarboxylic acid diethyl ester]
91 nM	CCOC(=O)C1=C(C)N=C(C)C(C(=O)OCC)C1c1c(C)noc1CCc1ccccc1-c1ccccc1 (stereo not drawn) [4-[5-(2-Biphenyl-2-yl-ethyl)-3-methyl-isoxazol-4-yl]-2,6-dimethyl-1,4-dihydro-pyridine-3,5-dicarboxylic acid diethyl ester]
